In patent US12344597B2, “Alkoxy-substituted pyridinyl derivatives as LPA1 receptor antagonists and their use in the treatment of fibrosis” (IDORSIA PHARMACEUTICALS LTD, priority 2018, dated 2025):

Assays:
[1] = molecular target: human LPA1 receptor (Homo sapiens (Human), UniProt Q92633); assay: Beta-arrestin recruitment assay to determine IC50 values for human LPAR1; format: cell-based; conditions: antagonist mode, Tango EDG2-bla U2OS cells, LPA 18:1 500 nM final
In short: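 Tango EDG2-bla U2OS cells: LPA-driven beta-arrestin/TEV protease recruitment releases Gal4-VP16, inducing beta-lactamase reporter read with live-cell substrate. Cells seeded 20 h at 37 °C beforehand. IC50 is antagonist concentration inhibiting 50% of maximal response.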

[2] = tested on: LPA-induced skin vascular leakage; assay: mouse LPA-induced skin vascular leakage model; format: in vivo; conditions: mice, oral administration of 100 mg/kg, LPA-induced vascular leakage (Evans blue)
Experimental: Assessment of In Vivo Potency
The in vivo potency of the compounds of formulae (I), (II) and (III) can be determined using a mouse LPA-induced skin vascular leakage model. Female Balb/c mice are treated with either vehicle or test compound (p.o.) for at least 1 h prior to administration of the albumin marker Evans blue (50 mg/kg, i.v., 0.9% NaCl) and subsequent challenge with LPA (5 μg, i.d.). After 30 minutes, mice are sacrificed by CO2 inhalation. Discs of skin from the injection sites are removed, digested in formamide (500 μl, 37° C., 24 hrs) and the content of Evans blue quantified by colorimetric assay. Results are expressed as extravasated Evans blue per skin disc (μg/disc).
As an example, the compound of Ex 12-21 is able to effectively reduce LPA-induced vascular leakage after oral administration of 100 mg/kg to mice as compared to a group of animals treated with vehicle only. Reduction of vascular leakage compared to vehicle group was ≥60%.

human LPA1 receptor, sequence (Q92633 whole entry, the tested form may be a part): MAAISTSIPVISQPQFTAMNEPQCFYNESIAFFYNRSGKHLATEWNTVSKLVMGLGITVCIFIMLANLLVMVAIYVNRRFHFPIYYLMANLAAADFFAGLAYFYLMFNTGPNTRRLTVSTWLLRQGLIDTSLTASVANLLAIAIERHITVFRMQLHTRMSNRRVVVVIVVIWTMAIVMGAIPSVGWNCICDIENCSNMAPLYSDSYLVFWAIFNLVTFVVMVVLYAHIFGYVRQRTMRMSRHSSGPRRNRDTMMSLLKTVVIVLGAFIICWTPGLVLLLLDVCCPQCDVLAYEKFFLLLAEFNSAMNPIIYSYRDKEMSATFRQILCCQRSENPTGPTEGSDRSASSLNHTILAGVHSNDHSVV

| Compound | IC50 [1] | Reduction of vascular leakage compared to vehicle group [2] |
| --- | --- | --- |
| Cc1ccc(NC(=O)C2(c3ccccc3C(C)C)CN(C(=O)Cn3nccn3)C2)c(OC(F)F)n1 [Ex 12-21, 1-(2-(2H-1,2,3-triazol-2-yl)acetyl)-N-(2-(difluoromethoxy)-6-methylpyridin-3-yl)-3-(2-isopropylphenyl)azetidine-3-carboxamide] | 0.0056 µM | ≥ 60% |
| COC(=O)C1(CN2CC(C(=O)Nc3ccc(C)nc3OC(F)F)(c3ccccc3C(C)C)C2)CC1 [Ex 11-26, methyl 1-((3-((2-(difluoromethoxy)-6-methylpyridin-3-yl)carbamoyl)-3-(2-isopropylphenyl)azetidin-1-yl)methyl)cyclopropane-1-carboxylate] | 0.4 µM |  |
| Cc1ccc(NC(=O)C2(c3ccccc3C(C)C)CN(CCCC(C)(C)[N+](=O)[O-])C2)c(OC(F)F)n1 [Ex 11-61, N-(2-(difluoromethoxy)-6-methylpyridin-3-yl)-3-(2-isopropylphenyl)-1-(4-methyl-4-nitropentyl)azetidine-3-carboxamide] | 0.039 µM |  |
| CCOC(=O)CNCCN1CC(C(=O)Nc2ccc(C)nc2OC(F)F)(c2ccccc2C(C)C)C1 [Ex 11-79, Ethyl (2-(3-((2-(difluoromethoxy)-6-methylpyridin-3-yl)carbamoyl)-3-(2-isopropylphenyl)azetidin-1-yl)ethyl)glycinate] | 0.019 µM |  |
| COC(=O)[C@@H]1C[C@@H]1C(=O)N1CC(C(=O)Nc2ccc(C)nc2OC(F)F)(c2ccccc2C(C)C)C1 [Ex 12-96, methyl (1R,2S)-2-(3-((2-(difluoromethoxy)-6-methylpyridin-3-yl)carbamoyl)-3-(2-isopropylphenyl)azetidine-1-carbonyl)cyclopropane-1-carboxylate] | 0.034 µM |  |
| CNC(=O)C(C)(C)CCN1CC(C(=O)Nc2ccc(C)nc2OC(F)F)(c2ccccc2C(C)C)C1 [Ex 11-92, N-(2-(difluoromethoxy)-6-methylpyridin-3-yl)-1-(3,3-dimethyl-4-(methylamino)-4-oxobutyl)-3-(2-isopropylphenyl)azetidine-3-carboxamide] | 0.044 µM |  |
| Cc1ccc(NC(=O)C2(c3ccccc3C(C)C)CN(Cc3nnn[nH]3)C2)c(OC(F)F)n1 [Ex 11-8, 1-((1H-tetrazol-5-yl)methyl)-N-(2-(difluoromethoxy)-6-methylpyridin-3-yl)-3-(2-isopropylphenyl)azetidine-3-carboxamide] | 0.055 µM |  |
| Cc1ccc(NC(=O)C2(c3ccccc3C(C)C)CN(C(=O)CCOCC(=O)O)C2)c(OC(F)F)n1 [Ex 12-110, 2-(3-(3-((2-(difluoromethoxy)-6-methylpyridin-3-yl)carbamoyl)-3-(2-isopropylphenyl)azetidin-1-yl)-3-oxopropoxy)acetic acid] | 0.066 µM |  |
| Cc1ccc(NC(=O)C2(c3ccccc3C(C)C)CN(C(=O)CC3NCCNC3=O)C2)c(OC(F)F)n1 (stereo not drawn) [Ex 12-46, N-(2-(difluoromethoxy)-6-methylpyridin-3-yl)-3-(2-isopropylphenyl)-1-(2-(3-oxopiperazin-2-yl)acetyl)azetidine-3-carboxamide] | 0.556 µM |  |
| COC(=O)CC1(CN2CC(C(=O)Nc3ccc(C)nc3OC(F)F)(c3ccccc3C(C)C)C2)CC1 [Ex 11-67, Methyl 2-(1-((3-((2-(difluoromethoxy)-6-methylpyridin-3-yl)carbamoyl)-3-(2-isopropylphenyl)azetidin-1-yl)methyl)cyclopropyl)acetate] | 0.326 µM |  |
| Cc1ccc(NC(=O)C2(c3ccccc3C(C)C)CCN(C(=O)CNCCO)CC2)c(OC(F)F)n1 [Ex 12-50, N-(2-(difluoromethoxy)-6-methylpyridin-3-yl)-1-((2-hydroxyethyl)glycyl)-4-(2-isopropylphenyl)piperidine-4-carboxamide] | 0.009 µM |  |
| Cc1ccc(NC(=O)C2(c3ccccc3C(C)C)CN(Cc3ccc(C(=O)O)o3)C2)c(OC(F)F)n1 [Ex 11-57, 5-((3-((2-(difluoromethoxy)-6-methylpyridin-3-yl)carbamoyl)-3-(2-isopropylphenyl)azetidin-1-yl)methyl)furan-2-carboxylic acid] | 0.012 µM |  |

Further lines, with some results ahead:

| IC50 [1] | Compound | Reduction of vascular leakage compared to vehicle group [2] |
| --- | --- | --- |
| 0.013 µM | COc1cc(Br)cnc1NC(=O)C1(c2ccccc2C(C)C)CN(S(N)(=O)=O)C1 [Ex 81-2, N-(5-bromo-3-methoxypyridin-2-yl)-3-(2-isopropylphenyl)-1-sulfamoylazetidine-3-carboxamide] |  |
| 0.004 µM | Cc1ccc(NC(=O)C2(c3ccccc3C(C)C)CN(C(=O)OCC(C)(C)C(=O)O)C2)c(OC(F)F)n1 [Ex 14-10, 3-((3-((2-(difluoromethoxy)-6-methylpyridin-3-yl)carbamoyl)-3-(2-isopropylphenyl)azetidine-1-carbonyl)oxy)-2,2-dimethylpropanoic acid] |  |
| 0.048 µM | N-(2-(difluoromethoxy)-6-methylpyridin-3-yl)-1-(3-(N-hydroxyacetamido)propanoyl)-3-(2-isopropylphenyl)azetidine-3-carboxamide [Ex 12-130] |  |
| 0.007 µM | CCCN(CC(=O)O)CC(=O)N1CC(C(=O)Nc2ccc(C)nc2OC(F)F)(c2ccccc2C(C)C)C1 [Ex 42, N-(2-(3-((2-(difluoromethoxy)-6-methylpyridin-3-yl)carbamoyl)-3-(2-isopropylphenyl)azetidin-1-yl)-2-oxoethyl)-N-propylglycine] |  |
| 0.127 µM | COC(=O)C1(COC(=O)N2CC(C(=O)Nc3ccc(C)nc3OC(F)F)(c3ccccc3C(C)C)C2)CC1 [Ex 14-11, (1-(methoxycarbonyl)cyclopropyl)methyl 3-((2-(difluoromethoxy)-6-methylpyridin-3-yl)carbamoyl)-3-(2-isopropylphenyl)azetidine-1-carboxylate] |  |
| 0.017 µM | CC(C)c1ccccc1C1(C(=O)Nc2ncc(Cl)cc2OC(F)F)CN(CCC(C)(C)C(=O)O)C1 [Ex 78-2, 4-(3-((5-chloro-3-(difluoromethoxy)pyridin-2-yl)carbamoyl)-3-(2-isopropylphenyl)azetidin-1-yl)-2,2-dimethylbutanoic acid] |  |
| 0.24 µM | Cc1ccc(NC(=O)C2(c3ccccc3C(C)C)CN(C(=O)N3CCN(C)CC3)C2)c(OC(F)F)n1 [Ex 17-26, N-(2-(difluoromethoxy)-6-methylpyridin-3-yl)-3-(2-isopropylphenyl)-1-(4-methylpiperazine-1-carbonyl)azetidine-3-carboxamide] |  |
| 0.069 µM | COCCN(CC(=O)OC)CC(=O)N1CC(C(=O)Nc2ccc(C)nc2OC(F)F)(c2ccccc2C(C)C)C1 [Ex 54, methyl N-(2-(3-((2-(difluoromethoxy)-6-methylpyridin-3-yl)carbamoyl)-3-(2-isopropylphenyl)azetidin-1-yl)-2-oxoethyl)-N-(2-methoxyethyl)glycinate] |  |
| 0.015 µM | Cc1ccc(C(C)C)c(C2(C(=O)Nc3ccc(C)nc3OC(F)F)CN(C(=O)CC(C)(C)C(=O)O)C2)c1 [Ex 39-2, 4-(3-((2-(difluoromethoxy)-6-methylpyridin-3-yl)carbamoyl)-3-(2-isopropyl-5-methylphenyl)azetidin-1-yl)-2,2-dimethyl-4-oxobutanoic acid] |  |
| 0.028 µM | COC(CC(=O)O)S(=O)(=O)N1CC(C(=O)Nc2ccc(C)nc2OC(F)F)(c2ccccc2C(C)C)C1 (stereo not drawn) [Ex 13-27, 3-((3-((2-(difluoromethoxy)-6-methylpyridin-3-yl)carbamoyl)-3-(2-isopropylphenyl)azetidin-1-yl)sulfonyl)-3-methoxypropanoic acid] |  |
| 0.01 µM | CCOC(=O)c1coc(N2CC(C(=O)Nc3ccc(C)nc3OC(F)F)(c3ccccc3C(C)C)C2)n1 [Ex 18-27, ethyl 2-(3-((2-(difluoromethoxy)-6-methylpyridin-3-yl)carbamoyl)-3-(2-isopropylphenyl)azetidin-1-yl)oxazole-4-carboxylate] |  |
